± gives the standard deviation of the averaged measurements.
Experiments:
Test in all cases: level (log10 ratio to DMSO vehicle control); higher = higher biomarker level / cell amount than vehicle control
Conditions in all cases: in DMSO
[1] = compound: C=CC(F)(F)C(F)(F)C(F)(F)C(F)(F)C(F)(F)C(F)(F)C(F)(F)C(F)(F)C=C [1,8-Divinylperfluorooctane]
Method: (§1)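 BioMAP Diversity Plus panel of 12 human primary cell co-culture systems (3C, 4H, LPS, SAg, BT, BF4T, BE3C, CASM3C, HDF3CGF, KF3CT, MyoF, Mphg). Compounds were added 1 h before stimulation and left for 24 h (MyoF 48 h; BT 72 h for soluble read-outs or 6 d for IgG). Biomarkers were read by ELISA, cytotoxicity by SRB, PBMC viability and proliferation by Alamar Blue. Each well value was divided by the mean of 8 DMSO control wells on the same plate and log10 transformed; duplicate blinded samples were tested at 4 concentrations.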

[2] = compound: FC(F)(F)C(F)(F)C(F)(F)C(F)(F)C(F)(F)CCI [1-Iodo-1H,1H,2H,2H-perfluoroheptane]
Method: as §1

[3] = compound: NCC(F)(F)C(F)(F)C(F)(F)C(F)(F)C(F)(F)C(F)(F)C(F)(F)F [1H,1H-Perfluorooctylamine]
Method: as §1

Perfluorobutanoic acid = compound: O=C(O)C(F)(F)C(F)(F)C(F)(F)F [Perfluorobutanoic acid]
Method: as §1

[4] = compound: O=C(O)C(F)(F)OC(F)(F)C(F)(F)OC(F)(F)C(=O)O [Perfluoro-3,6-dioxaoctane-1,8-dioic acid]
Method: as §1

[5] = compound: O=S(=O)(O)C(F)(F)C(F)(F)C(F)(F)C(F)(F)C(F)(F)C(F)(F)F [Perfluorohexanesulfonic acid]
Method: as §1

| Test System | level (log10) ([1]; 6700 nM) | level (log10) ([1]; 20000 nM) | level (log10) ([2]; 6700 nM) | level (log10) ([2]; 20000 nM) | level (log10) ([2]; 60000 nM) | level (log10) ([3]; 6700 nM) | level (log10) ([3]; 20000 nM) | level (log10) ([3]; 60000 nM) | level (log10) (Perfluorobutanoic acid; 6700 nM) | level (log10) (Perfluorobutanoic acid; 20000 nM) | level (log10) (Perfluorobutanoic acid; 60000 nM) | level (log10) ([4]; 6700 nM) | level (log10) ([4]; 20000 nM) | level (log10) ([4]; 60000 nM) | level (log10) ([5]; 6700 nM) | level (log10) ([5]; 20000 nM) | level (log10) ([5]; 60000 nM) |
| --- | --- | --- | --- | --- | --- | --- | --- | --- | --- | --- | --- | --- | --- | --- | --- | --- | --- |
| 3C:CD87/uPAR | -0.0065 ± 0.022 | 0.0105 ± 0.025 | -0.0105 ± 0.0092 | -0.0065 ± 0.0092 | 0.0045 ± 0.018 | -0.009 ± 0.023 | -0.017 ± 0.025 | -0.006 ± 0.0057 | 0.0005 ± 0.005 | 0.0105 ± 0.015 | -0.0065 ± 0.011 | 0.016 ± 0.044 | -0.013 ± 0.013 | 0.0195 ± 0.011 | -0.005 ± 0.027 | 0.0045 ± 0.011 | -0.0285 ± 0.013 |
| 3C:CXCL8/IL-8 | -0.023 ± 0.018 | 0.011 ± 0.034 | 0.011 ± 0.0085 | 0.0065 ± 0.016 | 0.051 ± 0.017 | -0.02 ± 0.0085 | -0.0125 ± 0.00071 | 0.0085 ± 0.046 | 0.001 ± 0.028 | -0.0035 ± 0.0064 | 0.0205 ± 0.03 | -0.015 ± 0.051 | -0.013 ± 0.034 | -0.007 ± 0.059 | -0.004 ± 0.014 | 0.031 | 0.069 ± 0.024 |
| 3C:CXCL9/MIG | -0.0085 ± 0.0064 | 0.0025 ± 0.0092 | -0.0035 ± 0.005 | -0.011 ± 0.0028 | -0.0075 ± 0.0064 | 0.0025 ± 0.0021 | -0.021 ± 0.0042 | -0.0205 ± 0.005 | -0.003 ± 0.0042 | -0.0015 ± 0.011 | 0.0085 ± 0.0078 | 0.003 ± 0.0057 | -0.009 ± 0.0028 | 0.0095 ± 0.005 | 0.0015 ± 0.0035 | 0.0035 ± 0.0092 | 0.007 ± 0.0085 |
| 3C:HLA-DR | -0.0185 ± 0.028 | -0.007 ± 0.013 | -0.001 ± 0.016 | 0.006 ± 0.0042 | -0.0035 ± 0.0064 | 0.004 ± 0.047 | 0.023 ± 0.057 | 0.023 ± 0.041 | -0.0035 ± 0.028 | -0.0215 ± 0.00071 | -0.0115 ± 0.021 | 0.008 ± 0.018 | -0.037 ± 0.013 | -0.0065 ± 0.012 | -0.0015 ± 0.015 | -0.0105 ± 0.023 | 0.0125 ± 0.047 |
| 3C:Proliferation | 0 ± 0.016 | 0 ± 0.013 | 0.001 ± 0.027 | -0.0465 ± 0.03 | -0.163 ± 0.052 | 0.004 ± 0.05 | 0.004 ± 0.047 | -0.0485 ± 0.063 | -0.0225 ± 0.084 | -0.02 ± 0.061 | 0.024 ± 0.042 | 0.002 ± 0.0028 | -0.038 ± 0.044 | -0.033 ± 0.014 | -0.042 ± 0.034 | -0.0525 ± 0.054 | -0.0305 ± 0.022 |
| 3C:SRB | 0.0135 ± 0.0021 | 0.027 ± 0.0042 | 0.006 ± 0.013 | -0.019 ± 0.0042 | -0.0175 ± 0.013 | 0.0005 ± 0.0035 | 0.002 ± 0.0071 | 0.0045 ± 0.046 | -0.021 ± 0.027 | -0.017 ± 0.013 | -0.0085 ± 0.0035 | 0.0055 ± 0.0064 | -0.0055 ± 0.016 | -0.004 ± 0.0014 | -0.011 ± 0.0085 | -0.014 ± 0.0014 | -0.0425 ± 0.019 |
| 4H:CCL2/MCP-1 | -0.0315 ± 0.005 | 0.013 ± 0.035 | 0.005 | -0.0045 ± 0.029 | 0.0325 ± 0.035 | 0.0075 ± 0.028 | -0.0195 ± 0.018 | 0.01 ± 0.044 | -0.0185 ± 0.012 | -0.05 ± 0.028 | 0.0005 ± 0.079 | 0.003 ± 0.041 | -0.032 ± 0.018 | 0.0205 ± 0.0035 | -0.0205 ± 0.044 | -0.049 ± 0.031 | -0.0195 ± 0.054 |
| 4H:CCL26/Eotaxin-3 | 0.013 ± 0.0085 | 0.0345 ± 0.013 | 0.007 ± 0.017 | 0 ± 0.014 | -0.009 | 0.0225 ± 0.022 | 0.008 ± 0.0014 | 0.028 ± 0.023 | -0.0135 ± 0.016 | -0.007 ± 0.024 | 0.015 ± 0.018 | 0.0045 ± 0.022 | 0.017 ± 0.021 | 0.0085 ± 0.0092 | -0.0105 ± 0.00071 | -0.001 ± 0.02 | -0.047 ± 0.018 |
| 4H:CD62P/P-selectin | -0.009 ± 0.018 | -0.035 ± 0.064 | 0.028 ± 0.075 | 0.049 ± 0.033 | -0.0635 ± 0.044 | 0.0025 ± 0.019 | -0.028 ± 0.021 | -0.0525 ± 0.047 | 0.086 ± 0.076 | 0.0575 ± 0.0035 | 0.09 ± 0.054 | -0.004 | 0.014 ± 0.0014 | 0.0275 ± 0.013 | 0.008 ± 0.058 | 0.0555 ± 0.043 | 0.112 ± 0.066 |
| 4H:CD87/uPAR | -0.0125 ± 0.015 | 0.0215 ± 0.0064 | 0.0265 ± 0.018 | 0.0175 ± 0.005 | 0.025 ± 0.03 | -0.0235 ± 0.023 | -0.0215 ± 0.033 | 0.003 ± 0.014 | -0.013 ± 0.0071 | -0.0125 ± 0.029 | -0.041 ± 0.0071 | -0.0095 ± 0.032 | -0.009 ± 0.037 | 0.001 ± 0.011 | -0.002 ± 0.023 | 0.0065 ± 0.013 | -0.0055 ± 0.022 |
| 4H:CD106/VCAM-1 | -0.012 ± 0.021 | 0.0035 ± 0.00071 | 0.006 ± 0.051 | 0 ± 0.028 | -0.0205 ± 0.026 | 0 ± 0.023 | -0.041 ± 0.027 | -0.034 ± 0.0085 | -0.0165 ± 0.0092 | -0.021 ± 0.0042 | -0.001 ± 0.013 | 0.01 ± 0.023 | -0.0125 ± 0.0078 | -0.001 ± 0.0042 | -0.013 ± 0.0042 | -0.023 ± 0.0042 | -0.012 ± 0.014 |
| 4H:SRB | 0.002 ± 0.0057 | 0.0125 ± 0.00071 | -0.004 ± 0.0057 | -0.01 ± 0.0057 | -0.008 ± 0.013 | -0.003 ± 0.0042 | 0.0005 ± 0.011 | 0.003 ± 0.042 | -0.02 ± 0.044 | -0.0115 ± 0.0035 | -0.007 ± 0.024 | -0.0115 ± 0.0078 | -0.0115 ± 0.022 | -0.003 ± 0.027 | -0.0245 ± 0.015 | -0.025 ± 0.017 | -0.045 ± 0.023 |
| 4H:VEGFR2 | -0.0065 ± 0.056 | 0.053 ± 0.0085 | 0.002 ± 0.047 | -0.004 ± 0.017 | 0.0155 ± 0.0021 | 0.0225 ± 0.015 | -0.012 ± 0.0042 | -0.017 ± 0.0085 | -0.025 ± 0.021 | -0.0105 ± 0.005 | 0.004 ± 0.013 | -0.045 ± 0.016 | -0.06 ± 0.011 | -0.016 ± 0.047 | -0.021 ± 0.037 | -0.0125 ± 0.052 | 0.03 ± 0.038 |
| BE3C:CD54/ICAM-1 | 0.0085 ± 0.015 | 0.0055 ± 0.013 | 0 ± 0.013 | -0.016 ± 0.011 | 0.006 ± 0.02 | 0.009 ± 0.0099 | -0.0045 ± 0.012 | 0.017 ± 0.034 | -0.0015 ± 0.023 | -0.0165 ± 0.0092 | 0.011 ± 0.025 | -0.003 ± 0.021 | -0.0035 ± 0.0092 | 0.002 ± 0.038 | 0 ± 0.027 | 0.0025 ± 0.016 | 0.008 ± 0.013 |
| BE3C:CD87/uPAR | 0.0045 ± 0.021 | -0.029 ± 0.025 | 0.006 ± 0.02 | 0.002 ± 0.0057 | 0.027 ± 0.0042 | 0.0025 ± 0.0021 | -0.0035 ± 0.012 | 0.008 ± 0.0099 | -0.012 ± 0.0099 | 0.0015 ± 0.013 | -0.015 ± 0.013 | -0.0105 ± 0.005 | -0.0215 ± 0.012 | 0.008 ± 0.03 | 0.0285 ± 0.00071 | 0.0015 ± 0.0035 | 0.035 ± 0.025 |
| BE3C:CXCL8/IL-8 | 0.0025 ± 0.021 | 0.01 ± 0.02 | 0.0285 ± 0.037 | 0.0605 ± 0.023 | 0.086 ± 0.024 | -0.017 ± 0.023 | -0.0075 ± 0.025 | -0.005 ± 0.013 | 0.0155 ± 0.022 | 0.01 ± 0.014 | 0.0155 ± 0.005 | -0.0485 ± 0.0092 | -0.0355 ± 0.0078 | 0.007 ± 0.05 | 0.017 ± 0.0071 | 0.0175 ± 0.023 | -0.032 ± 0.044 |
| BE3C:CXCL9/MIG | -0.001 ± 0.0014 | -0.005 ± 0.0028 | -0.001 ± 0.0014 | -0.008 ± 0.0042 | -0.008 ± 0.013 | -0.0095 ± 0.011 | 0.0035 ± 0.022 | 0.0005 ± 0.0021 | 0.002 ± 0.0071 | -0.004 ± 0.013 | -0.0005 ± 0.00071 | 0.0015 ± 0.0064 | -0.003 ± 0.0099 | 0.0015 ± 0.0021 | 0.0035 ± 0.0092 | -0.001 ± 0.0028 | -0.007 ± 0.0028 |

Reference: the supplement of paper PMC10331698
